We go through 2 compounds from paper PMC7824033, “Flavones, Flavonols, and Glycosylated Derivatives—Impact on Candida albicans Growth and Virulence, Expression of CDR1 and ERG11, Cytotoxicity” (Pharmaceuticals, 2020).

Converted amounts (≈) assume the structure as drawn. “Also recorded” adds a separate entry of the source. Read-outs that look alike come from different tables or passages of the source. A value given as a limit tells only on which side of the number the result lay.

In series [1] the test system is C. albicans 475/15 biofilm formation. The experiment in a line: Inhibition of biofilm formation (crystal violet). It is filed as cell-based, Candida albicans. How it is done: Potential of selected compounds to interfere with C. albicans 475/15 biofilm formation was investigated as previously described. Briefly, C. albicans 475/15 was incubated with serial dilution of the compounds (MIC and subMICs) in YPD medium, in 96-well microtiter plates with adhesive bottom (Sarstedt, Nümbrecht, Germany), at 37 °C for 24 h. After incubation, wells were washed twice with sterile PBS and methanol was added into each well. After fixation, methanol was discarded, and the plate was air dried. Formed biofilms were stained with 0.1% crystal violet (Bio-Merieux, Craponne, France) for 30 min. The plate was gently washed under the tap of water and air dried. The stain bound to the remaining biofilms was dissolved with ethanol (96%, Zorka, Šabac, Serbia). Absorbance was read on a Multiskan™ FC Microplate Photometer, Thermo Scientific™. The percentage of inhibition of biofilm formation was calculated by the formula:[(A620control − A620sample)/A620control] × 100

Another series concerns C. albicans 475/15. The experiment in a line: Microdilution assay, MIC and MFC. It is filed as cell-based. To be noted: Candida albicans, C. albicans 475/15, mean ± SD of three replicates; for MFC: read-out: MFC; for MIC: read-out: MIC.
Another series relates to C. albicans 527/14. The experiment in a line: Microdilution assay, MIC and MFC. It is filed as cell-based. To be noted: Candida albicans, C. albicans 527/14, mean ± SD of three replicates; for MFC: read-out: MFC; for MIC: read-out: MIC.
Another series has as its system C. albicans 10/15. The experiment in a line: Microdilution assay, MIC and MFC. It is filed as cell-based. To be noted: Candida albicans, C. albicans 10/15, mean ± SD of three replicates; for MFC: read-out: MFC; for MIC: read-out: MIC.
In a further series the test system is C. albicans 13/15. The experiment in a line: Microdilution assay, MIC and MFC. It counts as cell-based. The note with it: Candida albicans, C. albicans 13/15, mean ± SD of three replicates; for MFC: read-out: MFC; for MIC: read-out: MIC.
The test system of the next series is Candida albicans. Briefly: Microdilution assay, MIC (strain not named). To be noted: C. albicans, this study, strain not given, read-out: minimum inhibitory concentration (MIC). It counts as cell-based. The source says:
C. albicans was isolated from oral cavities of patients at ENT Clinic, Clinical Hospital Centre Zvezdara, Belgrade, Serbia after obtaining informed written consent and identified by using CHROMagar plates (Biomerieux, Craponne, France). Strains were maintained on Sabouraud Dextrose Agar (Merck, Darmstadt, Germany) and are deposited at the Mycological Laboratory, Department of Plant Physiology, Institute for Biological Research “Siniša Stanković”, National Institute of Republic of Serbia, University of Belgrade. The collection of samples was approved by the Ethical Committee (Office for Human Research Protection, Zvezdara University Medical Center, Belgrade, Serbia, document issued 26 October 2016).
Microdilution assay with some modification was used for determination of minimum inhibitory (MIC) and minimum fungicidal concentrations (MFC). Yeast cultures were adjusted to 1.0 × 10^5 CFU/per well with sterile PBS (Phosphate buffered saline, pH 7.4). The 96-well microtiter plates with serially diluted flavonoids (concentration range 0.3–75 µg/mL) in liquid broth were incubated at 37 °C for 24 h. After incubation, MIC and MFC were determined. The lowest concentrations that were not inducing microscopically observed growth were considered as MIC. For microscopic determination of growth, we used inverted microscope Nikon Eclipse TS2 (Amsterdam, Netherland) and examined the fungal growth in the wells of 96-well microtiter plates compared to the control (untreated yeast cells). MFC values were determined as concentrations without visible growth after serial sub-cultivation of 10 µL of samples at 37 °C for 24 h. Ketoconazole and amphotericin B (SigmaAldrich, Darmstadt, Germany) were used as an antifungal control. The tested flavonoids were obtained from Extrasynthese, Rhone, France.

For another series, the system named is C. albicans. To be noted: cited from earlier work.
The test system of series [2] is non-tumor colon cell (IEC-18). On the set-up: method as in PMID 25359775. To be noted: up to 150 μM; cited from earlier work.
Another series has as its system C. albicans biofilm. To be noted: cited from earlier work.
Series [3] concerns C. albicans 475/15 hyphal growth. Briefly: Anti-hyphal forming activity. It is filed as cell-based, Candida albicans. To be noted: MIC, 4 h, YPD + 10% FBS. As to the method:
C. albicans 475/15 cells were incubated with MIC of tested compounds in YPD + 10% FBS, at 37 °C, for 4 h. Cells were examined under microscope (Nikon Eclipse TS2, Amsterdam, Netherland) and number of cells, growing in the yeast or hyphal and germ tube formations, was determined. Assay was performed in triplicate and percentage of hyphae was determined.

A short description of a further series: in vitro. The note with it: pig.
Series [4] deals with HUVE (human umbilical vein endothelial) cells. The note with it: read-out: LC50; cited from earlier work.
The next series has as its system ALS1, ALS3, HWP1, SUN41. The note with it: ref 18; cited from earlier work.

In the case of `O=c1c(O[C@@H]2O[C@H](CO)[C@@H](O)[C@H](O)[C@H]2O)c(-c2ccc(O)c(O)c2)oc2cc(O)cc(O)c12` [Isoquercitrin, isoquercitrin], the “antibiofilm activity” value in series [1] (MIC and subMICs) was “excellent activity; also recorded: notably lowered”. Moreover, the entries for the “inhibition of biofilm formation” value in [1] (compound applied at MIC) and in [1] (compound applied at MIC/2) were 76% and over 60%, respectively. Also, the MFC in the series on C. albicans 475/15, with C. albicans 527/14, in the series on C. albicans 10/15 and in the series with C. albicans 13/15 was 75 ± 2 mg/L (≈ 162 µM) in each case. Also, the MIC with C. albicans 475/15 was 37.5 ± 1 mg/L (≈ 80.8 µM); with C. albicans 527/14 it was 37.5 ± 1 mg/L (≈ 80.8 µM); in the series on C. albicans 10/15 it was 37.5 ± 2 mg/L (≈ 80.8 µM); with C. albicans 13/15 it was 37.5 ± 2 mg/L (≈ 80.8 µM); in the series on Candida albicans, 37.5 mg/L (≈ 80.8 µM); with C. albicans (C. albicans ATCC 90028), 2.5 mg/L (≈ 5.38 µM). Moreover, the “cytotoxic effects” value in series [2] is “did not show cytotoxic effects”. Further, the “concentration with antibiofilm potential” value in the series with C. albicans biofilm (ref 19) was 200 µg/mL. Besides, the “reduction of hyphal growth (words)” value was “efficient in reduction of hyphal growth” in series [3] and “reduced” in [3] (listed as isoquercitrin). Moreover, the GI50 in “in vitro” was over 400 mg/L.

On to `O=c1c(O)c(-c2ccc(O)c(O)c2)oc2cc(O)cc(O)c12` [Quercetin, quercetin], for which the MFC came to 150 ± 10 mg/L (≈ 496 µM) with C. albicans 475/15, 150 ± 10 mg/L (≈ 496 µM) in the series with C. albicans 527/14, 150 ± 20 mg/L (≈ 496 µM) in the series on C. albicans 10/15 and 150 ± 20 mg/L (≈ 496 µM) in the series on C. albicans 13/15. Moreover, the MIC is 75 ± 2 mg/L (≈ 248 µM) with C. albicans 475/15; 75 ± 2 mg/L (≈ 248 µM) in the series on C. albicans 527/14; 75 ± 3 mg/L (≈ 248 µM) in the series with C. albicans 10/15; 75 ± 10 mg/L (≈ 248 µM) in the series on C. albicans 13/15; 75 mg/L (≈ 248 µM) with Candida albicans; 8 mg/L (≈ 26.5 µM) with C. albicans (C. albicans ATCC 10231, ref 16). Besides, the MIC with C. albicans (C. albicans ATCC 10231, ref 17) was 100 mg/L (≈ 331 µM); with C. albicans (clinical isolates and C. albicans 10231), over 83 mg/L; in the series with C. albicans (clinical isolates and reference strains ATCC 10231 and SC5314), 128 to 512 mg/L. Besides, the CC50 in series [4] is 61 µM. For the same compound, the “ALS1, ALS3, HWP1 and SUN41 expression levels” value with ALS1, ALS3, HWP1, SUN41 was “reduced”. The “activity against preformed 24-h-old biofilms” value in the series with C. albicans biofilm (625 µg/mL, C. albicans ATCC 90028) is “inactive”. Moreover, the “SMIC (sessile cells MIC)” value is at least 1024 mg/L with C. albicans biofilm (C. albicans ATCC 10231, SC 5314 and clinical isolates); over 200 mg/L in the series on C. albicans biofilm (oral and reference isolates SC5314 and 3153A). Moreover, the “concentration that prevented biofilm establishment” value in the series on C. albicans biofilm (C. albicans NBC099) is 200 µg/mL. In series [3], the “reduction of hyphal growth (words)” value was “only slight inhibition”. In the series “in vitro”, the GI50 was over 400 mg/L.
